The values below come from publication PMC6058525, “A novel phenolic propanediamine moiety-based lung-targeting therapy for asthma” (Drug Delivery, 2018).

In brackets after ≈: the same amount, converted by molar mass.

The test system of data set [1] is A549 cells. The data set can be described thus: Cellular uptake of TPD-Rhein in the presence of transporter inhibitors. It counts as cell-based, human. The note with it: A549 cells preincubated 1 h with inhibitor 189 μM, then TPD-Rhein 18.9 μM 1 h; vs control without inhibitor. As for the experimental part: The A549 cells were seeded in 6-well culture plates (5 × 10^5 cells/well). On the second day, cells were incubated with Rhein or TPD-Rhein solution at increasing concentrations (4.7, 9.3, 18.9 and 37.4 μM, respectively, equivalent to Rhein) at 37 °C for 1 h. Cells were rinsed three times with ice-cold PBS and collected for the determination of intracellular concentration. To explore the cell delivery mechanism of TPD, the cells were precubated with indicated inhibitors for 1 h and then incubated with TPD-Rhein (18.9 μM) for another 1 h. For energy depletion, cells were exposed to Rhein or TPD-Rhein (18.9 μM) for 0.5 h at 37 °C, 4 °C, or in the presence of NaN3 (1 mg/mL) for 1 h. Lysine and L-arginine were substrates of basic amino acid transporters (Zhou et al., [2016]). Pyrilamine was used to indicate pyrilamine-sensitive transporter (Okura et al., [2008]). Spermine and Spermidine were inhibitors of the alkaline polyamine transporter (Grancara et al., [2014]). […] Choline was a substrate of choline transport system (Taguchi et al., [2014]). TPD was performed as a competitive cationic inhibitor. The inhibitor concentrations were 10-fold (189 μM) of the concentration of TPD-Rhein. In the end, cells were rinsed three times with ice-cold PBS and the intracellular concentrations of Rhein or TPD-Rhein were measured by LC-MS/MS. Cellular uptake was expressed as the amount (nmol/L) of Rhein or TPD-Rhein per 1 mg of total cellular protein. The total protein concentration of cell lysates was measured using the BCA protein assay kit (Pierce, Appleton, WI).

Data set [2] concerns A549 cells. The data set can be described thus: Cell uptake study in A549 cells (LC-MS/MS). It counts as cell-based, human. The note with it: 18.9 μM, NaN3 1 mg/mL. As to the method:
The A549 cells were seeded in 6-well culture plates (5 × 10^5 cells/well). On the second day, cells were incubated with Rhein or TPD-Rhein solution at increasing concentrations (4.7, 9.3, 18.9 and 37.4 μM, respectively, equivalent to Rhein) at 37 °C for 1 h. Cells were rinsed three times with ice-cold PBS and collected for the determination of intracellular concentration. To explore the cell delivery mechanism of TPD, the cells were precubated with indicated inhibitors for 1 h and then incubated with TPD-Rhein (18.9 μM) for another 1 h. For energy depletion, cells were exposed to Rhein or TPD-Rhein (18.9 μM) for 0.5 h at 37 °C, 4 °C, or in the presence of NaN3 (1 mg/mL) for 1 h. Lysine and L-arginine were substrates of basic amino acid transporters (Zhou et al., [2016]). Pyrilamine was used to indicate pyrilamine-sensitive transporter (Okura et al., [2008]). Spermine and Spermidine were inhibitors of the alkaline polyamine transporter (Grancara et al., [2014]). […] In the end, cells were rinsed three times with ice-cold PBS and the intracellular concentrations of Rhein or TPD-Rhein were measured by LC-MS/MS. Cellular uptake was expressed as the amount (nmol/L) of Rhein or TPD-Rhein per 1 mg of total cellular protein. The total protein concentration of cell lysates was measured using the BCA protein assay kit (Pierce, Appleton, WI).

A further data set deals with Hela cells. The data set can be described thus: Cell uptake in Hela cells. It counts as cell-based, human. From the text: (§1) Male Wistar rats (body weight: 200 ± 20 g) were supplied by the Experimental Animal Center of Zhengzhou University (Zhengzhou, China). Rats were maintained in a germ-free environment and allowed free access to food and water for at least one week before experiments. All animal experiments were approved by the Institutional Animal Care and Ethics Committee of Zhengzhou University, according to the requirements of the National Act on the use of experimental animals (PR China). A549 cells (human pulmonary alveolar epithelial cells), L929 cells (mouse fibroblast cells), and Hela cells (human carcinoma cervical cells) were obtained from ATCC (Manassas, VA). The cells were cultured in DMEM with high glucose (GIBCO, Big Cabin, OK) supplemented with 20% fetal bovine serum and 1% penicillin/streptomycin. Routinely, cells were maintained at 37 °C in a humidified atmosphere containing 5% CO2, and the cell medium was changed every other day. The A549 cells were seeded in 6-well culture plates (5 × 10^5 cells/well). […] In the end, cells were rinsed three times with ice-cold PBS and the intracellular concentrations of Rhein or TPD-Rhein were measured by LC-MS/MS. Cellular uptake was expressed as the amount (nmol/L) of Rhein or TPD-Rhein per 1 mg of total cellular protein. The total protein concentration of cell lysates was measured using the BCA protein assay kit (Pierce, Appleton, WI).

The nature of data set [3]: Plasma pharmacokinetics after i.v. injection. The class given is in vivo. The note with it: rat, iv, rats, 10 mg/kg Rhein equivalent. As to the method: Rhein or TPD-Rhein was injected through the tail vein of rats. For each preparation and sampling time point, five rats were treated with a single dose of Rhein at the dose of 10 mg/kg or TPD-Rhein at 17.2 mg/kg (dose equivalent to 10 mg/kg Rhein), respectively. The rats were scarified at predetermined time intervals (0.083, 0.25, 0.5, 1, 2, 4, 8, 16, and 24 h) after administration. The whole blood was quickly collected into heparinized tubes and centrifuged at 5000 rpm for 5 min to obtain plasma. Then, the tissues (heart, liver, spleen, lung, kidney, and brain) were rinsed with saline, weighed and homogenized with cold physiological saline (twice the weight of tissues). For Rhein treated rats, the content of Rhein in the homogenates was measured by LC-MS/MS. For TPD-Rhein treated rats, the samples were injected to LC-MS/MS to determine the concentration of free Rhein released and TPD-Rhein, respectively. The content of TPD-Rhein in tested tissues at different time point was the sum of TPD-Rhein and free Rhein released. The biodistribution of the two drugs in each organ was normalized by the weight of the selected tissue.
The pharmacokinetic data were calculated using the DAS software version 2.0 (Mathematical Pharmacology Professional Committee of China, Shanghai, China). The relative uptake efficiency (Re) and concentration efficiency (Ce) were used to evaluate the lung-targeting properties of TPD-Rhein. The values of Re and Ce were calculated as follows: Relung=(AUC0-t, lung)TPD-Rhein/(AUC0-t, lung)Rhein Celung=(Cmax, lung)TPD-Rhein/(Cmax, lung)Rhein

In another data set the test system is L929 cells. The data set can be described thus: Cell uptake in L929 cells. The class given is cell-based, mouse.
Source text: as §1

For data set [4], the system named is OVA-induced asthma model in rats. The data set can be described thus: Therapeutic effect on ovalbumin-induced asthma model. It counts as in vivo, rat. The note with it: OVA-challenged asthmatic rats, i.v. Rhein 4.5 mg/kg/day or TPD-Rhein 7.7 mg/kg/day. As for the experimental part:
Wistar rats were used to evaluate the efficacy of Rhein and TPD-Rhein on asthma. Forty healthy male rats (200 ± 20 g) were randomly divided into four groups (n = 10). Asthma model in rats was established according to a previously reported method with slight modifications (Lu et al., [2015]). Briefly, on day 0, rats were systemically sensitized with an intraperitoneal injection with 1 mL of 10% ovalbumin (OVA). Two weeks after the sensitization, the rats were exposed to aerosolized OVA for 30 min of cycling three times per week for 14 weeks. The concentration of OVA was increased from 2% for 8 weeks to 4% for remaining 6 weeks to maintain the asthma condition. From weeks 3–16, the OVA-sensitized rats in the treatment groups were given normal saline, Rhein, or TPD-Rhein intravenously before OVA inhalation, at doses of 4.5 mg/kg/day for Rhein and 7.7 mg/kg/day for TPD-Rhein (dose equivalent to free drug treatment), respectively. The rats in the normal group received with the same volume of normal saline instead. One day after the last ultrasonic atomization, all rats were anesthetized by 3% sodium pentobarbital solution at a dose of 45 mg/kg. Then, 0.5 mL of intracardiac blood of each rat was collected. The histamine level and Interleukin-5 (IL-5) level in the supernatant serum were determined using Rat HIS ELISA kit (R&D Company, Minneapolis, MN) and Rat IL-5 ELISA Kit (R&D Company, Minneapolis, MN) according to the manufacturer’s instructions, respectively. Lungs were removed from sacrificed rats and lavaged to determine the IL-5 level using the corresponding kit. In the end, lungs were fixed in 4% buffered formalin, paraffin embedded and sectioned for hematoxylin and eosin staining (H&E) for conventional histological analysis.

Data set [5] in a line: Aqueous solubility in PBS. The class given is physicochemical. The note with it: 25 °C, thermodynamic from solid. As to the method:
The solubilities of Rhein and TPD-Rhein were determined in PBS with varying pH values (pH = 2 and 7.4) by equilibrating an excess of solid compound in 5 mL of buffer at 25 °C for 12 h. The samples were filtered through a 0.22 µm Millipore filter, diluted in methanol, and analyzed by LC-MS/MS. The chemical and enzymatic stabilities of TPD-Rhein were assessed in PBS with varying pH values (pH = 2, 4.5, 6.8, and 7.4), freshly prepared rat plasma and lung homogenates (diluted with 0.9% physiological saline) from rats at 37 °C, respectively. At predetermined time intervals, samples were immediately diluted by an equal amount of methanol to precipitate protein, vortexed for 5 min and centrifuged at 13,000 rpm for 10 min. The supernatant was then subjected to LC-MS/MS. Stability studies were performed in triplicate.

Data set [6] in a line: In vitro cytotoxicity, MTT assay. The class given is cell-based. The note with it: human, A549 cells, under tested concentrations, read-out: A549 cells remaining viable. As for the experimental part: To evaluate the in vitro cytotoxicity of Rhein and TPD-Rhein, MTT (3-(4, 5-dimethylthiazol-2-yl)-2, 5-diphenyltetrazolium bromide) assays were performed using A549 cell lines. Briefly, A549 cells were seeded in 96-well culture plates at a density of 1 × 10^4 cells/well and incubated at 37 °C for two days. On the day of administration, the cells were treated with different concentrations of Rhein solution, TPD-Rhein solution or TPD solution (dispersed in serum-free culture medium) for 4 h. An aliquot of 20 μL MTT solution (5 mg/mL) were added into each well and incubated at 37 °C for another 4 h. After that, all medium was removed and cells were rinsed with phosphate-buffered saline (PBS), and the formed dark blue formazan crystals in each well were dissolved in 150 μL DMSO. The absorbance of each individual well was read on a microplate reader (Thermo Scientific, Waltham, MA, Varioskan Flash) at 570 nm wavelength. Cells not exposed to samples were used as control (=100% viability).
Background: Tetrazolium assays rely on reduction of a dye to a coloured formazan, in cell work by metabolically active cells.

Turning to `N=C(N)NCCC[C@H](N)C(=O)O` [L-arginine], the “effect of inhibitor on cellular uptake of TPD-Rhein” value (“effect of inhibitor” for short) in the data set with A549 cells [1] is on record as “no obvious impact”.
On the same count and under the same terms, as for `C[N+](C)(C)C[C@H](O)CC(=O)[O-]` [L-carnitine], the entry is “no obvious impact”.
For `NCCCC[C@H](N)C(=O)O` [L-lysine], the “effect of inhibitor” value in the data set with A549 cells [1] is listed as “no obvious impact”.
For orientation: AUC(0-t) means exposure summed from dosing to a finite time, without extrapolation to infinity. The Cmax is the maximum level reached in the sampled fluid or tissue. As usually defined, the solubility is the concentration that dissolves in the medium under given conditions. A higher solubility goes with much dissolved substance. With `O=C(O)c1cc(O)c2c(c1)C(=O)c1cccc(O)c1C2=O` [Rhein, 4,5-dihydroxyanthraquinone-2-carboxylic acid], in the data set with A549 cells [2], the “intracellular amount at 4 °C or in the presence of NaN3 versus 37 °C” value is listed as “no substantial difference”. Also, the “uptake compared with A549 cells” value in the data set on Hela cells is recorded as “slight decrease”. Moreover, in data set [3], the AUC(0-t) stood at 206 ± 10.6 µM·h and the Cmax came out at 308 ± 3.89 µM. Besides, the clearance in data set [3] (read-out: CLZ (converted)) is 2.83 mL/min/kg. The Vd in data set [3] (read-out: VZ) stood at 0.47 ± 0.02 L/kg. In addition, the “uptake compared with A549 cells” value in the data set with L929 cells is “slight decrease”. Further, in data set [4] (vs asthmatic model group), the “bronchoalveolar lavage fluid IL-5 level” value is recorded as “no significant differences” and the “plasma (serum) IL-5 level” value is “no significant differences”. Besides, the “lung histology (H&E)” value in data set [4] (vs asthmatic model rats) is “no significant improved anti-asthma efficacy”. For the same molecule, the concentration in solution in data set [5] (pH 2, aqueous buffer, PBS pH 2.0, 25 °C) (solubility at 12 h) was 3.56 ± 0.2 µg/mL (≈ 12.5 µM). For the same molecule, in data set [5] (pH 7.4, aqueous buffer, PBS pH 7.4, 25 °C), the solubility at 12 h was determined as 513 ± 32 µg/mL (≈ 1800 µM).
Regarding `CN(C)CCCN(C)Cc1ccc(O)cc1` [TPD, N,N,N’-trimethyl-N’-(4-hydroxyl-benzyl)-1,3-propanediamine], the “effect of inhibitor” value in the data set with A549 cells [1] is reported as “abolish”. Further, the viability at 4 h in data set [6] was above 90%.
As for `CC[N+](CC)(CC)CC.[Cl-]` [Tetraethylammonium (TEA) chloride], in the data set on A549 cells [1], the “effect of inhibitor” value is “significantly reduced”.
On the same count and under the same terms, the same measure for `C[N+](C)(C)CCO` [choline]: “no obvious impact”; for `CN(C)CCCN1c2ccccc2CCc2ccccc21` [imipramine]: “significantly reduced”.
Still for that read-out and setting: the same measure for `COc1ccc(CN(CCN(C)C)c2ccccn2)cc1` [pyrilamine]: “no obvious impact”.
Same read-out and setting: as for `NCCCCNCCCN` [spermidine], the entry is “no obvious impact”.
As to `NCCCNCCCCNCCCN` [spermine], in the data set with A549 cells [1], the “effect of inhibitor” value was “no obvious impact”.
